Laboratory results published in patent US10336702B2, “Pharmaceutically active compounds” (BERGENBIO ASA, priority 2015, dated 2019).

Assays:
p-Akt1 in LNCaP cells = target: T1, p-Akt1 in LNCaP cells (Homo sapiens, UniProt P31749); test: Phospho-Akt cellular SureFire assay, p-Akt1 in LNCaP cells; format: cell-based; conditions: read-out: Biological Assay 2 IC50 (nM) Akt1 LNCaP
T1 construct: SureFire assays to detect cellular p-Akt1, p-Akt2 and p-Akt3 levels in WM115 cells (Akt2/3) and LNCaP cells (Akt1); endogenous in cells; host or cells: LNCaP (ECACC 89110211)
T1 sequence (P31749 whole entry): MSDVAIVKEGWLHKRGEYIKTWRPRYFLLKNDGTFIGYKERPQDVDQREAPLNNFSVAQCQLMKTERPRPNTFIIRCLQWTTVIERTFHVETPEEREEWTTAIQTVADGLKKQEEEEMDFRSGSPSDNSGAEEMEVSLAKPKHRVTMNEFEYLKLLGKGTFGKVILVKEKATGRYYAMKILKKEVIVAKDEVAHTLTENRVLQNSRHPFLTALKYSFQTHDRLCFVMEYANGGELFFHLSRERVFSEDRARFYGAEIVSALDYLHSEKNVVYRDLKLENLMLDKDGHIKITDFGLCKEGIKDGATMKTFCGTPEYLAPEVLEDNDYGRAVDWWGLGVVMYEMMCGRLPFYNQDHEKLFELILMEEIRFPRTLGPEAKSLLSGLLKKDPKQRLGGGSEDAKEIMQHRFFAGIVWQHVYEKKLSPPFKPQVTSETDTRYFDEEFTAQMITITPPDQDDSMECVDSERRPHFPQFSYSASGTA
Summary of the method: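 Phospho-Thr308 Akt1 detected by AlphaScreen SureFire proximity beads in LNCaP lysates after 15 min compound treatment at 37 °C in 0.1% FBS medium, unstimulated, 0.3% DMSO. Cells plated at 5×10^4/well overnight; IC50 from a 4-parameter equation.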

p-Akt2 in WM115 cells = target: T2, p-Akt2 in WM115 cells (Homo sapiens, UniProt P31751); test: Phospho-Akt cellular SureFire assay, p-Akt2 in WM115 cells; format: cell-based; conditions: insulin stimulated, read-out: Biological Assay 2 IC50 (nM) Akt2 WM115
T2 construct: SureFire assays to detect cellular p-Akt1, p-Akt2 and p-Akt3 levels in WM115 cells (Akt2/3) and LNCaP cells (Akt1); endogenous in cells; host or cells: WM115 (ECACC 91061232), insulin-stimulated
T2 sequence (P31751 whole entry): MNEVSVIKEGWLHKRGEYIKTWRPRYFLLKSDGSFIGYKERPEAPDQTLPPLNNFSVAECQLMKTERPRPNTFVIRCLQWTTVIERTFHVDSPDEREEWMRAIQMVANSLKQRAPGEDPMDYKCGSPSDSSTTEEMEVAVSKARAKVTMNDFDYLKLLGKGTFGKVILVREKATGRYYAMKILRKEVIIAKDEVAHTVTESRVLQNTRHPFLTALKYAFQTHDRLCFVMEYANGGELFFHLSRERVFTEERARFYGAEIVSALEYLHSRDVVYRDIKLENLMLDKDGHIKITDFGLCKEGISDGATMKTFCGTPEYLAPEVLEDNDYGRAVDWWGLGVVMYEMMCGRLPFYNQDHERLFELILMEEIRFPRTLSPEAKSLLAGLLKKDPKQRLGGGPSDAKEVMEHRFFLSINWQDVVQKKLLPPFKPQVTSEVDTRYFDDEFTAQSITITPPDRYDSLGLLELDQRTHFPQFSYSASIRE
Summary of the method: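 Readout is a bead-proximity SureFire assay pairing a pThr308 Akt antibody with a total Akt2 antibody, lysate and beads incubated 2 h plus 2 h at room temperature in the dark. Before lysis, serum-starved WM115 cells received 100 nM insulin (10 min), then test compound (15 min, 0.3% DMSO); IC50 by 4-parameter equation.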

Akt2 = target: T3, Akt2 (Homo sapiens, UniProt P31751); test: Akt activation assay (PDK1-mediated activation, LANCE Ultra crosstide TR-FRET), Akt2; format: biochemical; conditions: read-out: Biological Assay 1 IC50 (nM) Akt2
T3 construct: unspecified tag, removed (detagged) (cleaved yes); purchased SignalChem and Proteros (Akt2); Merck Millipore (PDK1) 14-452 (PDK1); none given for Akt2
T3 sequence (P31751 whole entry): as above
Summary of the method: (§1)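 This TR-FRET readout (Eu-anti-phospho-crosstide antibody, 665/615 nm) measured PDK1-driven activation of Akt. Compound was first preincubated with each Akt isoform: Akt1 5 nM; Akt2 15 nM SignalChem or 5 nM Proteros; Akt3 3 nM SignalChem or 5 nM Proteros. Reactions then ran 30 min with 5 nM PDK1, lipid vesicles containing 0.55 µM PtdIns(3,4,5)P3, 100 µM ATP and 100 nM crosstide at pH 7.5, and IC50 came from a 4-parameter equation.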

p-Akt3 in WM115 cells = target: T4, p-Akt3 in WM115 cells (Homo sapiens, UniProt Q9Y243); test: Phospho-Akt cellular SureFire assay, p-Akt3 in WM115 cells; format: cell-based; conditions: insulin stimulated, read-out: Biological Assay 2 IC50 (nM) Akt3 WM115
T4 construct: SureFire assays to detect cellular p-Akt1, p-Akt2 and p-Akt3 levels in WM115 cells (Akt2/3) and LNCaP cells (Akt1); endogenous in cells; host or cells: WM115 (ECACC 91061232), insulin-stimulated
T4 sequence (Q9Y243 whole entry): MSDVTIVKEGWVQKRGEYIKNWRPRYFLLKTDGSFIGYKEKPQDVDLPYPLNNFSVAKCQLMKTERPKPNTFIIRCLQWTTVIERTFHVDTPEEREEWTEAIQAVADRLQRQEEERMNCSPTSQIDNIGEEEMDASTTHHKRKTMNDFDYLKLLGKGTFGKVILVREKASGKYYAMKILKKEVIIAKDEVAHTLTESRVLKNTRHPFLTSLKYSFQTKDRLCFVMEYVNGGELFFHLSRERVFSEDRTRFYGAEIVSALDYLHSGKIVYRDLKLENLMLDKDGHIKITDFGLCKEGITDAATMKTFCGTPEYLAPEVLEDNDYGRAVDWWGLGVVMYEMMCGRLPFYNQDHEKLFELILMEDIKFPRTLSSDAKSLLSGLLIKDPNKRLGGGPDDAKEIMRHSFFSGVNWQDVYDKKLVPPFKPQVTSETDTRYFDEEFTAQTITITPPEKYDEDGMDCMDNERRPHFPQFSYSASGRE
Summary of the method: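 pThr308-Akt3 in lysates was quantified by bead-proximity SureFire detection, pairing a phospho-specific antibody with a total Akt3 antibody. Before lysis, WM115 cells in 0.1% FBS medium were treated for 15 min at 37 °C with compound (final DMSO 0.3%), following a 10 min stimulation with 100 nM insulin. IC50 was obtained by 4-parameter fitting.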

Akt3 = target: T5, Akt3 (Homo sapiens, UniProt Q9Y243); test: Akt activation assay (PDK1-mediated activation, LANCE Ultra crosstide TR-FRET), Akt3; format: biochemical; conditions: read-out: Biological Assay 1 IC50 (nM) Akt3
T5 construct: unspecified tag, removed (detagged) (cleaved yes); purchased SignalChem and Proteros (Akt3); Merck Millipore (PDK1) 14-452 (PDK1); none given for Akt3
T5 sequence (Q9Y243 whole entry): as above
Summary of the method: as §1

Akt1 = target: T6, Akt1 (Homo sapiens, UniProt P31749); test: Akt activation assay (PDK1-mediated activation, LANCE Ultra crosstide TR-FRET), Akt1; format: biochemical; conditions: read-out: Biological Assay 1 IC50 (nM) Akt1
T6 construct: unspecified tag, removed (detagged) (cleaved yes); purchased SignalChem and Proteros (Akt1); Merck Millipore (PDK1) 14-452 (PDK1); none given for Akt1
T6 sequence (P31749 whole entry): as the sequence (P31749 whole entry) above
Summary of the method: as §1

IC50 (p-Akt1 in LNCaP cells) [nM] | IC50 (p-Akt2 in WM115 cells) [nM] | IC50 (Akt2) [nM] | IC50 (p-Akt3 in WM115 cells) [nM] | IC50 (Akt3) [nM] | IC50 (Akt1) [nM] | SMILES
7700 | 6000 | 2600 | 560 | 1400 | 5500 | NC1(c2ccc(-c3ncc(NC(=O)C[C@H]4CC[C@H](N5CCOCC5)CC4)cc3-c3ccccc3)cc2)CC(F)(F)C1 [Example A2, N-(6-(4-(1-amino-3,3-difluorocyclobutyl)phenyl)-5-phenylpyridin-3-yl)-2-(trans-4-morpholinocyclohexyl)acetamide]
> 30000 | > 3790 | 2200 | 270 | 140 | > 30000 | NC1(c2ccc(-c3nnc(NC(=O)C[C@H]4CC[C@H](N5CCOC5=O)CC4)cc3-c3ccccc3)cc2F)CC1 [Example A50, N-(6-(4-(1-aminocyclopropyl)-3-fluorophenyl)-5-phenylpyridazin-3-yl)-2-(trans-4-(2-oxooxazolidin-3-yl)cyclohexyl)acetamide]
4100 | 510 | 130 | 7 | 8 | > 14000 | CCC(=O)N(CC)[C@H]1CC[C@H](CC(=O)Nc2cc(-c3ccccc3)c(-c3ccc([C@]4(N)C[C@](C)(O)C4)cc3)nn2)CC1 [Example 113, N-(trans-4-(2-((6-(4-(trans-1-amino-3-hydroxy-3-methylcyclobutyl)phen)-5-phenylpyridazin-3-yl)amino)-2-oxoethyl)cyclohexyl)-N-ethylpropionamide]
> 30000 | > 30000 | > 30000 | 1400 | 520 | > 30000 | COC(=O)N(C)[C@H]1CC[C@H](CC(=O)Nc2cc(-c3ccsc3)c(-c3ccc(C4(N)CC4)c(F)c3)nn2)CC1 [Example A100, Methyl (trans-4-(2-((6-(4-(1-aminocyclopropyl)-3-fluorophenyl)-5-(thiophen-3-yl)pyridazin-3-yl)amino)-2-oxoethyl)cyclohexyl)(methyl)carbamate]
1300 | 350 | 65 | 15 | 7 | 8600 | CC(=O)N(C(C)C)[C@H]1CC[C@H](CC(=O)Nc2cnc(-c3ccc([C@]4(N)C[C@](C)(O)C4)cc3)c(-c3ccccc3)c2)CC1 [Example 120, N-(6-(4-(trans-1-amino-3-hydroxy-3-methylcyclobutyl)phenyl)-5-phenylpyridin-3-yl)-2-(trans-4-(N-isopropylacetamido)cyclohexyl)acetamide]
7100 | 2200 | 230 | 76 | 23 | 8100 | CCC(=O)N(C(C)C)[C@H]1CC[C@H](CC(=O)Nc2cc(-c3ccccc3)c(-c3ccc([C@]4(N)C[C@](C)(O)C4)cc3)cn2)CC1 [Example A107, N-(trans-4-(2-((5-(4-(trans-1-amino-3-hydroxy-3-methylcyclobutyl)phenyl)-4-phenylpyridin-2-yl)amino)-2-oxoethyl)cyclohexyl)-N-isopropylpropionamide]
> 30000 | 3200 | 1800 | 80 | 170 | > 30000 | NC1(c2ccc(-c3ncc(NC(=O)C[C@H]4CC[C@H](N5CCCCC5=O)CC4)cc3-c3ccsc3)cc2)CCC1 [Example A14, N-(6-(4-(1-aminocyclobutyl)phenyl)-5-(thiophen-3-yl)pyridin-3-yl)-2-(trans-4-(2-oxopiperidin-1-yl)cyclohexyl)acetamide]
9700 | 8000 | 740 | 250 | 28 | > 30000 | CC(=O)N(C)[C@H]1CC[C@H](CC(=O)Nc2cc(-c3ccccc3)c(-c3ccc([C@]4(N)C[C@H](F)C4)cc3)cn2)CC1 [Example A59, N-(5-(4-((1r,3r)-1-amino-3-fluorocyclobutyl)phenyl)-4-phenylpyridin-2-yl)-2-(trans-4-(N-methylacetamido)cyclohexyl)acetamide]
7100 | 1200 | 1100 | 81 | 57 | > 30000 | CC(=O)N(C)[C@H]1CC[C@H](CC(=O)Nc2cc(-c3ccccc3F)c(-c3ccc(C4(N)CCC4)cc3)cn2)CC1 [Example A62, N-(5-(4-(1-aminocyclobutyl)phenyl)-4-(2-fluorophenyl)pyridin-2-yl)-2-(trans-4-(N-methylacetamido)cyclohexyl)acetamide]

The remaining lines, values behind:

SMILES | IC50 (p-Akt1 in LNCaP cells) [nM] | IC50 (p-Akt2 in WM115 cells) [nM] | IC50 (Akt2) [nM] | IC50 (p-Akt3 in WM115 cells) [nM] | IC50 (Akt3) [nM] | IC50 (Akt1) [nM]
CCC(=O)N(C)[C@H]1CC[C@H](CC(=O)Nc2cc(-c3ccsc3)c(-c3ccc([C@]4(N)C[C@](C)(O)C4)cc3)nn2)CC1 [Example 91, N-(trans-4-(2-((6-(4-(trans-1-amino-3-hydroxy-3-methylcyclobutyl)phenyl)-5-(thiophen-3-yl)pyridazin-3-yl)amino)-2-oxoethyl)cyclohexyl)-N-methylpropionamide] | 3800 | 900 | 160 | 13 | 5 | 7000
NC1(c2ccc(-c3nnc(NC(=O)C[C@H]4CC[C@H](N5CCOC5=O)CC4)cc3-c3ccccc3)cc2)CC(F)(F)C1 [Example 61, N-(6-(4-(1-amino-3,3-difluorocyclobutyl)phenyl)-5-phenylpyridazin-3-yl)-2-(trans-4-(2-oxooxazolidin-3-yl)cyclohexyl)acetamide] | > 30000 | > 10500 | 200 | 66 | 17 | > 22800
CN(C(=O)C1CC1)[C@H]1CC[C@H](CC(=O)Nc2cc(-c3ccccc3)c(-c3ccc(C4(N)CC4)cc3)nn2)CC1 [Example 87, N-(trans-4-(2-((6-(4-(1-aminocyclopropyl)phenyl)-5-phenylpyridazin-3-yl)amino)-2-oxoethyl)cyclohexyl)-N-methylcyclopropanecarboxamide] | > 30000 | 3300 | 510 | 130 | 29 | > 30000
COC(=O)N(C)[C@H]1CC[C@H](CC(=O)Nc2cc(-c3ccccc3)c(-c3ccc(C(C)(C)N)cc3)nn2)CC1 [Example 56, Methyl (trans-4-(2-((6-(4-(2-aminopropan-2-yl)phenyl)-5-phenylpyridazin-3-yl)amino)-2-oxoethyl)cyclohexyl)(methyl)carbamate] | > 30000 | > 30000 | 10000 | 330 | 100 | > 30000
CN(C)C(=O)[C@H]1CC[C@H](CC(=O)Nc2cnc(-c3ccc(C(C)(C)N)cc3)c(-c3ccccc3)c2)CC1 [Example 55, trans-4-(2-((6-(4-(2-aminopropan-2-yl)phenyl)-5-phenylpyridin-3-yl)amino)-2-oxoethyl)-N,N-dimethylcyclohexanecarboxamide] | > 30000 | 3800 | 3300 | 160 | 1600 | > 30000
CC(=O)N(C)[C@H]1CC[C@H](CC(=O)Nc2cnc(-c3ccc([C@]4(N)C[C@H](F)C4)cc3)c(-c3ccccc3)c2)CC1 [Example 32, N-(6-(4-(trans-1-amino-3-fluorocyclobutyl)phenyl)-5-phenylpyridin-3-yl)-2-(trans-4-(N-methylacetamido)cyclohexyl)acetamide] | 6900 | 1400 | 470 | 36 | 34 | 2000
CC(C)(N)c1ccc(-c2ncc(NC(=O)C[C@H]3CC[C@H](N4CCOC4=O)CC3)cc2-c2ccccc2)cc1 [Example 42, N-(6-(4-(2-aminopropan-2-yl)phenyl)-5-phenylpyridin-3-yl)-2-(trans-4-(2-oxooxazolidin-3-yl)cyclohexyl)acetamide] | > 30000 | 7900 | 4500 | 210 | 960 | > 30000
